This is an account of results in patent US20110039906A1, “ANTIBACTERIAL COMBINATION THERAPY” (priority 2007, published 2011).

One assay relates to USA/VISA 5836 (VISA). Kind of assay: MIC by broth microdilution (experiment B). To be noted: Staphylococcus aureus, combination 1:1, value = mg/L total drug. The class given is cell-based. On the technique in general: Broth dilution looks for growth in wells or tubes with falling amounts of substance.
Another assay has as its system VISA 3900 UK (VISA). The experiment in a line: MIC by broth microdilution (experiment B). To be noted: Staphylococcus aureus, combination 1:1, value = mg/L total drug. The assay is classed as cell-based.
Assay [1] deals with 25 different MRSA isolates and 5 VRE isolates. Kind of assay: Pooled MIC testing (MIC50, MIC90, range). The assay is classed as cell-based. To be noted: 25 MRSA isolates and 5 VRE isolates. The text has this:
The MIC50 is the minimum inhibitory concentration required to inhibit the growth of 50% of the strains tested, and the MIC90, the concentration required to inhibit the growth of 90% of the strains tested.

Another assay concerns S. epidermidis 1228. Kind of assay: MIC by broth microdilution (experiment B). The assay is classed as cell-based. To be noted: Staphylococcus epidermidis, combination 1:1, value = mg/L total drug.
Another assay concerns Mu50exJapan (VISA). The experiment in a line: MIC by broth microdilution (experiment B). The assay is classed as cell-based. To be noted: Staphylococcus aureus, combination 1:1, value = mg/L total drug.
Another assay deals with USA/VISA) 5827 (VISA. Kind of assay: MIC by broth microdilution (experiment B). To be noted: Staphylococcus aureus, combination 1:1, value = mg/L total drug. The class given is cell-based.
For the next assay, the system named is MRSA. To be noted: literature evidence (Taylor et al., 1987); cited from earlier work.

SMILES strings stand for the structures. In brackets after ≈: the same amount, converted by molar mass. Where two headings read alike, the source gives them in different places.

Experimental for Mu50exJapan (VISA): (§1) Minimum inhibitory concentrations (MICs) of a range of clinical and control bacterial organisms were measured according to BSAC (British Society for Antimicrobial Chemotherapy) guidelines (Andrews 2001), for single agents and combinations of agents, described briefly as follows. MICs were measured by agar dilution (Experiment A) and by broth microdilution (experiment B).
(§2) Stock solutions were prepared at concentrations of 1000 mg/L and 100 mg/L. The appropriate amounts of each stock solution were added to separate Petri dishes give a range of final concentrations (after the addition of 20 mL molten agar): from 0.12 to 32 mg/L. In experiment A, a 1:1 ratio of each agent was added to the appropriate Petri dish so that a 2 mg/L plate contained 2 mg/L of each agent. Volumes (20 mL) of cooled molten IST agar (oxoid) was added to each Petri dish and mixed by swirling. After drying, the plates were stored at 4° C. and protected from light. Plates were used on the day of preparation.
(§3) The test organisms were grown overnight in 5 mL IST broth. […] For the broth microdilution, each well of a microtitre plate was inoculated with diluted overnight culture to give a final inoculum of 5×10^5 cfu/mL. […]
(§4) The MIC is the minimum amount of an antibiotic at which there is no visible growth of bacteria. Tiny single colonies or faint hazes were not counted as growth.
Experimental for S. epidermidis 1228: as §1, §2, §3, §4
Experimental for USA/VISA 5836 (VISA): as §1, §2, §3, §4
Experimental for USA/VISA) 5827 (VISA: as §1, §2, §3, §4
Experimental for VISA 3900 UK (VISA): as §1, §2, §3, §4

`Clc1ccc(COC(Cn2ccnc2)c2ccc(Cl)cc2Cl)c(Cl)c1` (stereo not drawn) [Miconazole, 1-[2-(2,4-Dichlorophenyl)-2-[(2,4-dichlorophenyl)methoxy]ethyl]-1H-imidazole]: the MIC in the assay on USA/VISA 5836 (VISA) stood at 8 µg/mL; in the assay with VISA 3900 UK (VISA), 2 µg/mL; in assay [1] (read-out: highest MIC), 8 µg/mL (≈ 19.2 µM); in assay [1] (read-out: lowest MIC), 0.5 µg/mL (≈ 1.2 µM); in the assay with S. epidermidis 1228 it was 2 µg/mL. In addition, in assay [1], the “Range of MICs” value lay within 0.5 to 8 mg/L. This compound had an MIC50 in assay [1] (concentration inhibiting growth of 50% of strains) of 2 µg/mL (≈ 4.81 µM). In addition, in assay [1] (concentration inhibiting growth of 90% of strains), the MIC90 was found to be 2 µg/mL (≈ 4.81 µM).
`Clc1ccc(COC(Cn2ccnc2)c2ccc(Cl)cc2Cl)cc1` (stereo not drawn) [Econazole, 1-[2-[(4-Chlorphenyl)methoxy]-2-(2,4-dichlorophenyl)ethyl]-1H-imidazole]: the MIC with USA/VISA 5836 (VISA) came out at 8 µg/mL; with VISA 3900 UK (VISA), 8 µg/mL; with Mu50exJapan (VISA) it was 8 µg/mL; in the assay on S. epidermidis 1228, 2 µg/mL; in the assay with USA/VISA) 5827 (VISA, 4 µg/mL.
For the compound `CCN(CC)C(=S)SSC(=S)N(CC)CC` [Disulfiram (ethanol), disulfiram], the “antibacterial activity against MRSA” value in the assay on MRSA is listed as “some antibacterial activity”.
Regarding `CCN(CC)C(=S)S` [DDTC, diethyldithiocarbamate], in the assay with MRSA, the “antibacterial activity against MRSA” value is given as “some antibacterial activity”.

As usually defined, the MIC is the least concentration at which growth counts as inhibited. The MIC50 is the lowest concentration that inhibits either 50% of growth or 50% of the strains tested, depending on the study. As a reminder, the MIC90 is the lowest concentration that inhibits either 90% of growth or 90% of the strains tested, depending on the study. A lower MIC90 goes with greater potency.
